Results: paper PMC9504029, “Identification and Characterization of Novel Small-Molecule SMOX Inhibitors” (Medical Sciences, 2022)
Where two headings read alike, the source gives them in different places.

How the values were obtained:
SMOX [1] = molecular target: T1, SMOX (Homo sapiens, UniProt Q9NWM0); assay: SMOX enzyme activity, HRP-luminol chemiluminescence assay; assay type: biochemical; settings: 2 mM spermine; for inhibition at 20 µM: 20 µM compound, no pre-incubation, triplicate, read-out: % Inhibition at 20 μM ± SD, SMOX; for IC50: AUC over 60 s, pH 8
T1 construct: using 0.3 µg/mL of purified SMOX enzyme and 2 mM of spermine substrate
Method: As the catabolism of spermine by SMOX results in the stoichiometric production of H2O2, enzyme activity was quantified by chemiluminescence generated by the horseradish peroxidase-catalyzed oxidation of luminol in 96-well plates (Costar #3912; white, flat bottom), as previously described. All assays were performed in 0.083 M glycine buffer at a pH of 8 using 0.3 µg/mL of purified SMOX enzyme and 2 mM of spermine substrate. Phosphate buffer was not used to prevent the formation of polyamine–phosphate complexes. Enzyme reactions were initiated by the addition of SMOX and HRP to all other assay components; inhibitors were not pre-incubated with enzyme. Triplicate determinations were obtained for each measurement by recording the luminescence (AUC) over 60 s. Hit compounds were then confirmed by monitoring the assay over 600 s. Each triplicate assay point contained a 4th control well to monitor and normalize the data with regards to luminescent decay over time. The compounds were initially screened for activity at a concentration of 20 µM. […] The known SMOX inhibitor, MDL-72527, was used as a control. The hit compounds were then characterized by IC50 and kinetic analyses. Percent inhibition values are reported as triplicate mean % SMOX inhibition ± SD compared to the vehicle control. IC50 values were calculated in GraphPad Prism 9.3 software (Graph-Pad, San Diego, California) using a non-linear regression analysis ([Inhibitor] vs. normalized response—variable slope). Data for all enzyme assays were generated using a SpectraMax M5 plate reader (Molecular Devices) equipped with SOFTmax PRO 7.0.3 software.

LSD1 = molecular target: T2, LSD1 (Homo sapiens, UniProt O60341); assay: LSD1 selectivity assay (Cayman kit, resorufin fluorescence); assay type: biochemical; settings: read-out: % Inhibition at 20 μM ± SD, LSD1
T2 construct: purchased Cayman Chemical #700120

recombinant human MAO-A = molecular target: T3, recombinant human MAO-A (Homo sapiens, UniProt P21397); assay: MAO-Glo assay, MAO-A; assay type: biochemical; settings: for inhibition at 20 µM: read-out: % Inhibition at 20 μM ± SD, MAO-A
T3 construct: purchased Sigma-Aldrich M7316-1VL
T3 sequence (P21397 1-527): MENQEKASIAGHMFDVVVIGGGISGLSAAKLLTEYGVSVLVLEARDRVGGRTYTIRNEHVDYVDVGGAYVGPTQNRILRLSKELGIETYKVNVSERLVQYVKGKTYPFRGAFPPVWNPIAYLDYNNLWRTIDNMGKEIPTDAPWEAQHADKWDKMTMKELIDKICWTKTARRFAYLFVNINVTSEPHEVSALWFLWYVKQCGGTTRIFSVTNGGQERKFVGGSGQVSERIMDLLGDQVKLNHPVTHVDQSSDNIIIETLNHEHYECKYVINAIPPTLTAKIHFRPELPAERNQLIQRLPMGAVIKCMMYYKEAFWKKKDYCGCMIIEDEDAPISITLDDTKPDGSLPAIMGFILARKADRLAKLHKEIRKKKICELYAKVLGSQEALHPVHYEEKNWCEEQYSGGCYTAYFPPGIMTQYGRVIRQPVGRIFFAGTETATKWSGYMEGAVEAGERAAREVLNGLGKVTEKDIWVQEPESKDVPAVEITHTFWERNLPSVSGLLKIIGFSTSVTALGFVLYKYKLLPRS
Method: (§1) To determine selectivity, the compounds were tested for activity against the related FAD-dependent amine oxidase enzymes LSD1, MAO-A, and MAO-B. LSD1 activity was assessed using a commercially available assay kit (#700120, Cayman Chemical, Ann Arbor, MI, USA), in which the enzyme activity was determined by the horseradish peroxidase-catalyzed oxidation of 10-acetyl-3,7-dihydroxyphenoxazine to the highly fluorescent resorufin in response to H2O2 production. Monoamine oxidase activity was determined using recombinant human MAO-A and MAO-B (M7316-1VL & M7441-1VL, Sigma-Aldrich, St. Louis, MO, USA) and a commercially available assay kit (#V1401, MAO-Glo, Promega, Madison, WI, USA), which utilizes the MAO-catalyzed oxidation of a luciferin derivative coupled with esterase activity to produce luminescence. Fluorescent and luminescent readout was obtained using a SpectraMax M5 plate reader (Molecular Devices) equipped with SOFTmax PRO 7.0.3 software. […] Values were reported as mean % inhibition ± SD of triplicate assay wells normalized to background activity and compared to the vehicle control.

recombinant human MAO-B = molecular target: T4, recombinant human MAO-B (Homo sapiens, UniProt P27338); assay: MAO-Glo assay, MAO-B; assay type: biochemical; settings: for inhibition at 20 µM: read-out: % Inhibition at 20 μM ± SD, MAO-B
T4 construct: purchased Sigma-Aldrich M7441-1VL
T4 sequence (P27338 1-520): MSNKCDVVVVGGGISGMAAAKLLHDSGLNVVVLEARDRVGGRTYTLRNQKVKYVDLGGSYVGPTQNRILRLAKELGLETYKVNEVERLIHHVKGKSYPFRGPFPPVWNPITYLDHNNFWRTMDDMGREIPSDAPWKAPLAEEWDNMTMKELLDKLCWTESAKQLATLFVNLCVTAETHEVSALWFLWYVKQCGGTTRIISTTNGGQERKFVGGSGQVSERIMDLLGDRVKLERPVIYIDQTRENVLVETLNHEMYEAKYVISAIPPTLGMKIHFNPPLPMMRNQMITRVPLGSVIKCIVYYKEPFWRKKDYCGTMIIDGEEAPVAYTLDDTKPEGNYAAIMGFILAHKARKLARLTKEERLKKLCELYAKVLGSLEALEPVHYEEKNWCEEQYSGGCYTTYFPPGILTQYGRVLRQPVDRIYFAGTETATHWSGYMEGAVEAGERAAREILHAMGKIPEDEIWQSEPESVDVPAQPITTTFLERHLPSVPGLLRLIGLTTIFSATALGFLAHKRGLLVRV
Method: as §1

SMOX [2] = molecular target: T1, SMOX; settings: cited from earlier work
[3] = Cytotoxicity analysis, MTS assay; assay type: cell-based; settings: human, SH-SY5Y neuroblastoma cells, MTS
Method: (§2) SH-SY5Y neuroblastoma cells purchased from ATCC (Manassas, VA, USA) were cultured in Dulbecco’s modified Eagle medium (DMEM) without phenol red and supplemented with 10% heat inactivated human AB serum, 4 mM L-glutamine, and 1% penicillin/streptomycin. As the oxidation of spermine by various polyamine oxidases has been documented in cell culture containing ruminant serum, such as in fetal bovine serum (FBS) and horse serum, human AB serum was used to prevent assay interference. The cells were maintained in 5% CO2 humidified atmosphere at 37 °C. Cell media was replaced every 2 days and the cells were discarded after a maximum of 15 passages.
(§3) The SH-SY5Y neuroblastoma cells were plated in 96-well plates at a density of 30,000 cells/well and allowed to reach 80% confluence, followed by treatment with varying concentrations of inhibitor ranging from 0 to 10 mM for 12 h. Cell viability was assessed by standard MTS assay, in which MTS reagent was added to each well at a concentration of 0.33 mg/mL and incubated at 37 °C for 3 h. Viability was monitored and confirmed by a visual inspection of the cells. Absorbance was read at 490 nm and the absorbance values were normalized to background wells containing varying concentrations of inhibitor, cell media, and MTS reagent. Colorimetric readout was obtained using a SpectraMax M5 plate reader (Molecular Devices) equipped with SOFTmax PRO 7.0.3 software.

[4] = test system: SH-SY5Y neuroblastoma cells; assay: Cytotoxicity analysis, MTS assay; assay type: cell-based; settings: doses below 1 mM
Method: as §2, §3

SMOX [5] = molecular target: T1, SMOX; assay: Mechanism of inhibition and enzyme kinetics (Lineweaver–Burk, global fit); assay type: biochemical
Method: The mechanism of enzyme inhibition was determined using the HRP-luminol coupled enzyme assay described above. Reaction velocity (max RLU/sec over 10 min) was measured across multiple substrate and inhibitor concentrations, and individual triplicate values were plotted using a Lineweaver–Burk transformation (double-reciprocal) in GraphPad Prism 9.3 software (Graph-Pad, San Diego, CA, USA).

T1 sequence (Q9NWM0 whole entry): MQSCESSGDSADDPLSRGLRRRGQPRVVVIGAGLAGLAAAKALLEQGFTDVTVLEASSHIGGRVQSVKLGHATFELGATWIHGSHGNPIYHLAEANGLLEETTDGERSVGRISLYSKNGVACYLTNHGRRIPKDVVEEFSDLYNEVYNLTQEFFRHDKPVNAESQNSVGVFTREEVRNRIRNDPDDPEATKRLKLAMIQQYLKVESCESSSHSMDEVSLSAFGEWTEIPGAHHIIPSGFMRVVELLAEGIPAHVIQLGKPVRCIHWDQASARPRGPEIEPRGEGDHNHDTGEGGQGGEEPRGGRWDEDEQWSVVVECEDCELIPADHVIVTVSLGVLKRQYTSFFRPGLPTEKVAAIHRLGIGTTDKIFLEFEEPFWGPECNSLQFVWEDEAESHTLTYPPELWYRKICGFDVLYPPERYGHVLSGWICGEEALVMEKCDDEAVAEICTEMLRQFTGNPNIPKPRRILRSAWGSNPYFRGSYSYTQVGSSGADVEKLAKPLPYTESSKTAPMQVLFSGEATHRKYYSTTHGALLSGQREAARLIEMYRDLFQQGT

inhibition at 20 µM (SMOX [1])	IC50 (SMOX [1])	inhibition at 20 µM (LSD1)	inhibition at 20 µM (recombinant human MAO-A)	inhibition at 20 µM (recombinant human MAO-B)	SMILES	Mechanism of inhibition of SMOX (SMOX [2])	other results
96.3 ± 0.1%	0.47 µM	46.2 ± 25.7%	7.3 ± 0.7%	4.5 ± 9.5%	N=C(N)NCCCNCC(O)c1ccc(O)c(O)c1 (stereo not drawn) [Compound 5]		
10.2 ± 0.9%					C=C=CCNCCCCNCC=C=C [MDL-72527, N^1,N^4-bis(2,3-butadienyl)-1,4-butanediamine]	irreversible inhibitor	IC50 (SMOX [2]): 89 to 100 µM; Ki (SMOX [2]): 63 µM
					[H]/N=C(\N/C(=N/[H])NCCCCCCNC(=N)NC(=N)Nc1ccc(Cl)cc1)Nc1ccc(Cl)cc1 [chlorhexidine]	competitive inhibitors	Ki (SMOX [2]): 0.55 to 3.8 µM
96.7 ± 0.2%	6.02 µM	41.6 ± 24.4%	-13.7 ± 4.6%	-16.9 ± 12.3%	N=C(N)NCCCCNCC(O)c1cc(O)cc(O)c1 (stereo not drawn) [Compound 3]		
					CC(C)=CCNC(=N)NCCCCN [N-prenylagmatine]	competitive inhibitors	
					N=C(N)NCCCCCCCCNCCCCCCCCNC(=N)N [guazatine]	competitive inhibitors	
93.6 ± 1%	8.3 µM	-18.7 ± 9.8%	-5.5 ± 4.2%	3.5 ± 1.3%	N=C(N)NCCCNCC(O)c1cc(O)cc(O)c1 (stereo not drawn) [Compound 2]		
					N[C@@H]1C[C@H]1c1ccccc1 (racemic) [TCP, Tranylcypromine, reference compound]		% Inhibition at 20 μM ± SD, MAO-A (recombinant human MAO-A): 92.6 ± 0.2%
					COc1ccccc1CNCCCCCCNCCCCCCCCNCCCCCCNCc1ccccc1OC [methoctramine]		Ki (SMOX [2]): 1.2 µM

SMILES	inhibition at 20 µM (SMOX [1])	IC50 (SMOX [1])	inhibition at 20 µM (LSD1)	inhibition at 20 µM (recombinant human MAO-A)	inhibition at 20 µM (recombinant human MAO-B)	Mechanism of inhibition of SMOX (SMOX [2])	other results
N=C(N)NCCNCC(O)c1ccc(O)c(O)c1 (stereo not drawn) [Compound 4]	95.7 ± 0.3%	0.23 µM	31.9 ± 12.6%	15.5 ± 0.5%	12.6 ± 1.6%		CC50 at 12 h ([3]; 12 h post treatment, read-out: LC50 (dose corresponding to 50% viability)): 3600 µM; Toxicity after 12-h exposure [4]: did not produce significant toxicity
N=C(N)NCCCNCC(O)c1cc(O)ccc1O (stereo not drawn) [Compound 7]	99.9 ± 0.1%	0.23 µM	> 73%	45%	29%		Mechanism of inhibition (SMOX [5]; Lineweaver–Burk analysis): competitive; Ki (SMOX [5]; global fit for competitive inhibition, inhibitor 0, 0.1, 1 µM): 0.46 µM; % Inhibition at 20 μM ± SD, MAO-A (recombinant human MAO-A): 45.1 ± 7.7%; % Inhibition at 20 μM ± SD, MAO-B (recombinant human MAO-B): 29.1 ± 2.1%; CC50 at 12 h ([3]; 12 h, read-out: LC50): 130 µM
